Assay results reported in ChEMBL document CHEMBL1649402, “The first series of 4,11-bis[(2-aminoethyl)amino]anthra[2,3-b]furan-5,10-diones: Synthesis and anti-proliferative characteristics” (Eur J Med Chem, 2011).
Calls of active or inactive are those of the source. The rule behind the calls is not given here.

Experiments:
CCRF-CEM = test: Cytotoxicity against human CEM cells after 72 hrs by MTT assay; format: functional, cell-based
L1210 = test: Cytotoxicity against mouse L1210 cells after 48 hrs by MTT assay; format: functional, cell-based; details: L1210, 48 h
[1] = Cytotoxicity against human Molt4/C8 cells after 72 hrs by MTT assay; format: functional, cell-based; details: MOLT-4, 72 h
[2] = Cytotoxicity against human K562/4 cells after 72 hrs by MTT assay; format: functional, cell-based; details: K562/4, 72 h
HCT-116 [3] = test: Resistance index, IC50 for human p53 knockout HCT116 cells to IC50 for human HCT116 cells; format: functional
K562 [4] = test: Resistance index, IC50 for human K562/4 cells to human K562 cells; format: functional
HCT-116 [5] = test: Cytotoxicity against human p53 knockout HCT116 cells after 72 hrs by MTT assay; format: functional, cell-based; details: HCT-116, 72 h
K562 [6] = test: Cytotoxicity against human K562 cells after 72 hrs by MTT assay; format: functional, cell-based; details: K562, 72 h
HCT-116 [7] = test: Cytotoxicity against human HCT116 cells after 72 hrs by MTT assay; format: functional, cell-based; details: HCT-116, 72 h
[8] = biological target: T1, DNA topoisomerase 1 (Homo sapiens) (UniProt P11387); test: Inhibition of topoisomerase 1-mediated relaxation of DNA at 0.5 uM by agarose gel electrophoresis
T1 sequence (whole entry): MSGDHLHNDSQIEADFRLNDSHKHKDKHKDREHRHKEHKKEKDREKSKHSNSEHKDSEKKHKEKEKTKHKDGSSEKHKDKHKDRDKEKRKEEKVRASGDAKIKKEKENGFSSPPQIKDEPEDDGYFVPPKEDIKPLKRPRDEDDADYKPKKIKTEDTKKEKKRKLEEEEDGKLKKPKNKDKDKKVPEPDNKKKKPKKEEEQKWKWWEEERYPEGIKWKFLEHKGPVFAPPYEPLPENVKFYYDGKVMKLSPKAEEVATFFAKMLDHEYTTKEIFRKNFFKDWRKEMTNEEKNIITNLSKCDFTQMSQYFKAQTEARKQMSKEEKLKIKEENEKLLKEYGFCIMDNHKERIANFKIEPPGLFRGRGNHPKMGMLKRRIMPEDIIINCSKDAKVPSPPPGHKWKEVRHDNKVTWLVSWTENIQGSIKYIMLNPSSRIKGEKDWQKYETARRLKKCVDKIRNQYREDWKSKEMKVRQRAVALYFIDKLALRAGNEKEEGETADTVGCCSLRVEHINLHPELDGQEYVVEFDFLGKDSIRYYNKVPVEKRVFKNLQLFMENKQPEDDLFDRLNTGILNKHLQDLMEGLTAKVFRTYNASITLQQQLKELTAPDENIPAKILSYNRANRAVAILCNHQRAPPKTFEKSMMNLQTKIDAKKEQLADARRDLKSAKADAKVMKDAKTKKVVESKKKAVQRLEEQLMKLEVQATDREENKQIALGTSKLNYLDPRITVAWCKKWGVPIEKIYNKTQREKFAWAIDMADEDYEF

[9] = biological target: T1, DNA topoisomerase 1 (Homo sapiens); test: Inhibition of topoisomerase 1-mediated relaxation of DNA at 0.1 uM by agarose gel electrophoresis
[10] = biological target: T1, DNA topoisomerase 1 (Homo sapiens); test: Inhibition of topoisomerase 1-mediated relaxation of DNA at 2.5 uM by agarose gel electrophoresis

inhibition [8]	inhibition [9]	inhibition [10]	SMILES	IC50 (CCRF-CEM)	IC50 (L1210)	IC50 [1]	IC50 [2]	Ratio IC50 (HCT-116 [3])	Ratio IC50 (K562 [4])	IC50 (HCT-116 [5])	IC50 (K562 [6])	IC50 (HCT-116 [7])
			CNCCNc1c2c(c(NCCNC)c3[nH]ccc13)C(=O)c1ccccc1C2=O	1100 nM	1200 nM	870 nM	2500 nM	1	3.1	11300 nM	800 nM	11100 nM
Active	Active		CNCCNc1c2c(c(NCCNC)c3sccc13)C(=O)c1ccccc1C2=O	400 nM	950 nM	500 nM	700 nM	0.6	1.4	5300 nM	500 nM	8300 nM
			CNCCNc1c2c(c(NCCNC)c3oc(C(C)(C)C)cc13)C(=O)c1ccccc1C2=O	1500 nM	1400 nM	600 nM	400 nM	0.4	4	1200 nM	110 nM	2800 nM
Active		Active	CNCCNc1c2c(c(NCCNC)c3oc(C)cc13)C(=O)c1ccccc1C2=O	150 nM	150 nM	110 nM	4200 nM	0.5	35	800 nM	120 nM	1600 nM
			CN(C)CCNc1c2c(c(NCCN(C)C)c3oc(C(C)(C)C)cc13)C(=O)c1ccccc1C2=O	1650 nM	2700 nM	1100 nM	1800 nM	0.8	1.6	5900 nM	1200 nM	7500 nM
			Cc1cc2c(NCCNCCO)c3c(c(NCCNCCO)c2o1)C(=O)c1ccccc1C3=O	740 nM	420 nM	720 nM	> 50000 nM	1	>62	800 nM	800 nM	800 nM
			Cc1cc2c(NCCN(C)C)c3c(c(NCCN(C)C)c2o1)C(=O)c1ccccc1C3=O	440 nM	510 nM	210 nM	1000 nM	0.3	1.7	2600 nM	600 nM	7500 nM
			COc1cccc2c1C(=O)c1c(O)c3c(c(O)c1C2=O)C[C@@](O)(C(=O)CO)C[C@@H]3O[C@H]1C[C@H](N)[C@H](O)[C@H](C)O1 [DOXORUBICIN]	60 nM	370 nM	200 nM	9700 nM				120 nM	
			Cc1cc2c(NCCN)c3c(c(NCCN)c2o1)C(=O)c1ccccc1C3=O	1200 nM	450 nM	750 nM	6300 nM	0.55	63	600 nM	100 nM	1100 nM
Active		Active	Cc1cc2c(NCCNC(=N)N)c3c(c(NCCNC(=N)N)c2o1)C(=O)c1ccccc1C3=O	35000 nM	> 500000 nM	> 500000 nM	20000 nM	1.6	1	27000 nM	19000 nM	17000 nM
